Reference: patent US6905836B2, “Methods for identifying compounds that inhibit ubiquitin-mediated proteolysis of iκb” (Yissum Research Development Company of the Hebrew …, priority 2000, dated 2005)
Residues, ends and D or L forms follow the SMILES beside them. *: point of attachment. Cbz = O=C(OCc1ccccc1)*

T1: E3RS-hnRNP-U complex (Homo sapiens, UniProt Q9Y297)
T1 construct: expressed in transfected cells; host or cells: 293T cells
T1 sequence (Q9Y297 1-605): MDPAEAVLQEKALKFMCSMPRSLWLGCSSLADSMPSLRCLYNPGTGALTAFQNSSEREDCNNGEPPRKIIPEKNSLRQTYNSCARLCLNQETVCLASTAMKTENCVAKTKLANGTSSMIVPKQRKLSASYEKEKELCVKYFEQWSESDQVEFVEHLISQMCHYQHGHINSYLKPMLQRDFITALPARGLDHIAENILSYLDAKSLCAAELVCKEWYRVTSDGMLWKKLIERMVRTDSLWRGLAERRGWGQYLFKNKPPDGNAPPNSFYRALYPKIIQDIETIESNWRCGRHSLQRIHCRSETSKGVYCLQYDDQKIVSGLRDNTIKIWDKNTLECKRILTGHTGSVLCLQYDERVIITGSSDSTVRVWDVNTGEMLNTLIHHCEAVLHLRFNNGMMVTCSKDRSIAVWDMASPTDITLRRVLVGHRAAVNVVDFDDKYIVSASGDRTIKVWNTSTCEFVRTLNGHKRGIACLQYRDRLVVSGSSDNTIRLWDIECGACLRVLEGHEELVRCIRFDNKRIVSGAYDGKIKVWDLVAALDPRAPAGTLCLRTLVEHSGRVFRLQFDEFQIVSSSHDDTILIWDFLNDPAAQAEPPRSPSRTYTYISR


Assays:
[1] = system: Vpu-mediated GFP-CD4 degradation; test: Vpu-mediated CD4 degradation assay (GFP-CD4, tet-off Vpu); assay type: cell-based, human; conditions: 293 cells, pretreatment of transfected cells, Western blotting (FIG. 7C)
Experimental: The inducible system consists of the tetracycline (Tc)-responsive promoter system developed by Gossen and Bujard (1992). Vpu and GFP-CD4 expression were performed in either HeLa Tet-off gene expression system (CLONTECH). These stably transfected HeLa cells carry the pTet-Off regulator plasmid encoding a tetracycline-controlled transactivator (tTA), which also includes a neomycin-resistance gene. Alternatively 293 cells were transfected with the inducible constructs and the pTet-Off plasmid (Lavon et al., 2000). […]
The ubiquitin-ligase activity is measured as a function of Vpu-mediated GFP-CD4 degradation (FIG. 7A). […] The N-terminal CD4 sequence, including the first three Ig-like domains (but preserving the CD4 signal sequence), was replaced with the human EGFP sequence for allowing the quantitative measurement of the fusion protein through the GFP fluorescence signal.
A GFP-CD4 expression plasmid was co-transfected into 293 cells together with expression plasmids for doxycycline (DOX)-regulated HIV-Vpu and tTA (tetracycline transactivator) plasmid. Vpu and GFP-CD4 expression were detected by Western blotting. […]

[2] = target: T1, E3RS-hnRNP-U complex; test: Dissociation of E3RS from immobilized hnRNP-U by IκBα species; assay type: binding; conditions: anti-hnRNP-U immunobeads from Flag-E3RS transfected 293T cells; Western blot (FIG. 4D)
Experimental: Flag-E3RS and endogenous hnRNP-U from 293T cells were used as an E3 source and Flag-WD was used as a negative control. 100 μg protein extract was immunoprecipitated using 2 μl anti-Flag beads or 0.21 μl anti-hnRNP-U antibodies. IκB was phosphorylated by the constitutively-active IκB kinase (IKK2; (Mercurio et al., 1997)) and subjected to binding and ubiquitination assays with each of the above E3 sources, as described previously by (Yaron et al., 1998).
Next, 293T cells transfected with Flag-E3RS were immunoprecipitated using anti-Flag (lanes 1,2) or anti-hnRNP-U (FIG. 4D, lanes 3-7) antibodies. IκBα (FIG. 4D, lanes 1,3,4) and IKK phosphorylated IκBα (pIκBα; FIG. 4D, lanes 2,5-7) were incubated with the immunobeads, after which, both the immunobeads (slurry (S); FIG. 4D, lanes 1-3,5) and the post-slurry fractions (PS; FIG. 4D, lanes 4,6) were analyzed by Western blot directly, or after immunoprecipitation of the post-slurry fraction (same as in FIG. 4D, lane 6) with anti-Flag beads (FIG. 4D, lane 7).

| Molecule | GFP-CD4 signal upon Vpu expression [1] | dissociation of E3RS from immobilized hnRNP-U into the post-slurry fraction [2] |
| --- | --- | --- |
| CC(C)C[C@@H](C=O)NC(=O)[C@H](CC(C)C)NC(=O)[C@H](CC(C)C)NC(=O)OCc1ccccc1 [MG132] (Cbz-Leu-Leu-Leu-aldehyde) | preservation of the GFP-CD4 signal |  |
| pIκBα: IKK phosphorylated IκBα protein (protein) MFQAAERPQEWAMEGPRDGLKKERLLDDRHDSGLDSMKDEEYEQMVKELQEIRLEPQEVPRGSEPWKQQLTEDGDSFLHLAIIHEEKALTMEVIRQVKGDLAFLNFQNNLQQTPLHLAVITNQPEIAEALLGAGCDPELRDFRGNTPLHLACEQGCLASVGVLTQSCTTPHLHSILKATNYNGHTCLHLASIHGYLGIVELLVSLGADVNAQEPCNGRTALHLAVDLQNPDLVSLLLKCGADVNRVTYQGYSPYQLTWGRPSTRIQQQLGQLTLENLQMLPESEDEESYDTESEFTEFTEDELPYDDCVFGGQRLTL |  | induced the dissociation of the E3RS from the immobilized hnRNP-U |
